Measurements from patent US10653689B2, “Combination-based treatment method” (priority 2014, dated 2020).

System: BRCA1-deficient human breast cancer cell line, MX-1
Experiment: Tumor growth delay in MX-1 human breast cancer model in mice
Format: in vivo
Parameters: Median TTE: unit not given beside the values
Method: Cancerous cells from the BRCA1-deficient human breast cancer cell line, MX-1, were injected subcutaneously in female mice. […]
Animal weight, clinical observations and tumor volume were monitored twice/week until the endpoint (2000 mm^3 of tumor volume or Day 88) was met.
Efficacy was measured by tumor growth delay and regression response rate.

[1] = rucaparib 30 mg/kg po q.d. × 21
[2] = rucaparib 150 mg/kg po q.d. × 21

In the case of CNCc1ccc(-c2[nH]c3cc(F)cc4c3c2CCNC4=O)cc1 [rucaparib], the “Median TTE” value [1] was 39, the “Regressions CR” value [1] was 0% and the “Regressions PR” value [1] was 0%. For the same compound, the “Regressions TFS” value [1] was 0%, the “Statistical Results For Groups Tested” value [1] was “Significant against vehicle (p ≤ 0.05)” and the T-C [1] was 14 days. The TGD [1] was 56%, the “Median TTE” value [2] was 43 and the “Regressions CR” value [2] was 0%. For the same compound, the “Regressions PR” value [2] was 0%, the “Regressions TFS” value [2] was 0% and the “Statistical Results For Groups Tested” value [2] was “Significant against vehicle (p ≤ 0.01)”. For the same compound, the T-C [2] was 18 days, the TGD [2] was 73% and the “efficacy (mean tumor volumes, FIG. 1)” value (single agent, at both the 30 mg/kg and 150 mg/kg dosages) was “only marginally effective”.

With “pentaerythritol-based multi-arm polymer conjugate of irinotecan [PBMAPCI]” the “Median TTE” value (PBMAPCI 10 mg/kg iv qwk × 4) was 57, the “Regressions CR” value (PBMAPCI 10 mg/kg iv qwk × 4) was 10% and the “Regressions PR” value (PBMAPCI 10 mg/kg iv qwk × 4) was 0%. For the same compound, the “Regressions TFS” value (PBMAPCI 10 mg/kg iv qwk × 4) was 10%, the “Statistical Results For Groups Tested” value (PBMAPCI 10 mg/kg iv qwk × 4) was “Significant against vehicle (p ≤ 0.001)” and the T-C (PBMAPCI 10 mg/kg iv qwk × 4) was 32 days. The TGD (PBMAPCI 10 mg/kg iv qwk × 4) was 129%, the “Median TTE” value (PBMAPCI 50 mg/kg iv qwk × 4) was 88 and the “Regressions CR” value (PBMAPCI 50 mg/kg iv qwk × 4) was 100%. The “Regressions PR” value (PBMAPCI 50 mg/kg iv qwk × 4) was 0%, the “Regressions TFS” value (PBMAPCI 50 mg/kg iv qwk × 4) was 100% and the “Statistical Results For Groups Tested” value (PBMAPCI 50 mg/kg iv qwk × 4) was “Significant against vehicle (p ≤ 0.001)”. For the same compound, the T-C (PBMAPCI 50 mg/kg iv qwk × 4) was 63 days and the TGD (PBMAPCI 50 mg/kg iv qwk × 4) was 252%.
